Experiment: Biodistribution of I-123 Compound in rats (i.v. injection, excised organs gamma counted)
Assay type: in vivo, Sprague-Dawley male rats
Settings: for Blood/Brain: concentration ratio calculated from % dose/gram of wet tissue; for Biodistribution, Brain / Biodistribution, Heart / Biodistribution, Kidneys / Biodistribution, Liver / Biodistribution, Lungs / Biodistribution, Skin / Biodistribution, Spleen / Biodistribution, Stomach / Biodistribution, Thyroids / Biodistribution, Blood / Biodistribution, Muscle: average of 3; for Biodistribution, Blood: blood taken as 7% of body weight; for Biodistribution, Muscle: muscle taken as 40% of body weight
Procedure: Studies of distribution of the optimum radiopharmaceutical compound of the present invention in rats, the results of which are reflected in Table 1, were conducted according to standard practice in the pharmacological sciences, and therefore need not be described here in great detail. Nevertheless, for the sake of complete understanding of the present invention, some experimental details of these studies are briefly described below: Sprague-Dawley male rats (220-300 g) were injected intravenously (femoral vein) with a 0.2 ml solution (0.5-20. micro Ci) under light ether anaesthesia. At different time periods after the injection, the animals were sacrificed and organs of interest were excised and counted in a well counter. Percent dose was estimated by comparison of tissue counts to suitably diluted aliquots of the injected material. Total activities in blood and muscle were calculated by assuming that they are 7% and 40% of the body weight respectively. Sprague-Dawley male rats (220-300 g) under light ether anesthesia were injected intravenously with 0.2 ml of a saline solution containing 0.5-20 uCi of test compound (specific activity 0.5-1.0 uCi/mg). At different time periods after injection the animals were put under ether anesthesia and killed by cardiactomy. The organs of interest were excised, weighed and counted in a Beckman automatic gamma counter (Model 4000). The % dose/organ was determined by comparison of tissue radioactivity levels to suitably diluted aliquots of the injected dose. The approximate % dose/g of wet tissue or organ can be calculated by dividing the % dose/organ by the mean organ weight (mean weights: heart 0.85 g, brain 1.65 g, blood 18 g, liver 9 g, kidneys 1.9 g, lungs 1.6 g).

[1] = 2 min after i.v. injection, rats
[2] = 1 hr after i.v. injection, rats

For `Cc1cc([123I])cc(CN(C)CCCN(C)C)c1O` [I-123 Compound, N,N,N-trimethyl-N'[2-hydroxy-3-methyl-5-iodobenzyl]-1,3-propanediamines], the Blood/Brain (2 min after i.v. injection) was 14.84, the “Biodistribution, Brain” value [1] was 2.74 % dose/organ and the “Biodistribution, Heart” value [1] was 2.71 % dose/organ. The “Biodistribution, Kidneys” value [1] was 8.06 % dose/organ, the “Biodistribution, Liver” value [1] was 5.52 % dose/organ and the “Biodistribution, Lungs” value [1] was 36.53 % dose/organ. The “Biodistribution, Skin” value [1] was 6.73 % dose/organ, the “Biodistribution, Spleen” value [1] was 0.72 % dose/organ and the “Biodistribution, Stomach” value [1] was 0.80 % dose/organ. For the same compound, the “Biodistribution, Thyroids” value [1] was 0.59 % dose/organ, the “Biodistribution, Blood” value [1] was 2.02 % dose/organ and the “Biodistribution, Muscle” value [1] was 5.66 % dose/organ. The Blood/Brain (1 hr after i.v. injection) was 32.18, the “Biodistribution, Brain” value [2] was 2.50 % dose/organ and the “Biodistribution, Heart” value [2] was 0.29 % dose/organ. The “Biodistribution, Kidneys” value [2] was 2.87 % dose/organ, the “Biodistribution, Liver” value [2] was 4.68 % dose/organ and the “Biodistribution, Lungs” value [2] was 18.25 % dose/organ. For the same compound, the “Biodistribution, Skin” value [2] was 9.21 % dose/organ, the “Biodistribution, Spleen” value [2] was 1.58 % dose/organ and the “Biodistribution, Stomach” value [2] was 0.93 % dose/organ. The “Biodistribution, Thyroids” value [2] was 0.06 % dose/organ, the “Biodistribution, Blood” value [2] was 0.85 % dose/organ and the “Biodistribution, Muscle” value [2] was 12.77 % dose/organ. The “initial uptake in the brain, lung and liver” value (rats, i.v., Table 1, in words) was “high initial uptake” and the “persistence of uptake in the brain, lung and liver” value (rats, i.v., Table 1, in words) was “persists sufficiently to allow imaging”.

Source: US4430319A, “Radioactive iodine labeled phenolic amines” (State University of New York, priority 1982, dated 1984)
